In PubChem BioAssay AID720663 (NMMLSC, 2013):
Active and inactive are the calls of the source.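 How the source made its calls: active means inhibition above 50% of lysosomal marker LAMP-1 reaching the cell surface; inactive means inhibition below 50%.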

System: TALL-104 cells, LAMP-1 externalization, flow cytometry
Test: blockers of surface LAMP-1 appearance in TALL-104 – TALL-104 cells, flow cytometry, CherryPick01, confirmation (AID 720663)
Settings: at 30 µM; stronger effect = higher value

Structure (SMILES) | inhibition
CCc1ccc2nc(N(CCCN(C)C)C(=O)c3ccc(S(=O)(=O)N4CCc5ccccc5C4)cc3)sc2c1 | 97.7%
CCN(CC)CCCNc1ccc(-c2nnc(-c3ccc(OCC(C)C)cc3)o2)cn1 | 87.3%
COc1cccc(-c2cnc3c(NC(C)=O)cc(-c4ccccc4OC)cn23)c1 | 56.1%
COc1ccc(-c2cc(NC=O)c3ncc(-c4cccc(OC)c4)n3c2)cc1 | 82.8%
COc1ccccc1CNc1nc(NCc2ccc3occc3c2)c2sccc2n1 | 37.5% (inactive)
COc1ccc([N+](=O)[O-])cc1Nc1c2ccccc2nc2ccccc12 | 20.4% (inactive)
COC(=O)[C@]12CCCCC=C1N(Cc1cccc3ccccc13)C(=O)[C@H](CC(=O)NCc1ccc(OC)c(OC)c1)C2 | 15.9% (inactive)
CC1=C(C)CS(=O)N(S(=O)(=O)c2ccc(Cl)cc2)C1 (stereo not given) | 99.5%
N#Cc1ccc(NC(=O)Nc2ccc(Oc3ccc(NC(=O)Nc4ccc(C#N)cc4)cc3)cc2)cc1 | 40.4% (inactive)
CC(=O)Nc1ccc2sn(-c3ccccc3)c(=O)c2c1 | 26.4% (inactive)
Fc1ccc(/C=C\c2nccc3c2[nH]c2ccccc23)cc1 | 98.7%
O=C(OCc1ccccc1)N(CCCCN(CCCNCc1ccccc1)C(=O)OCc1ccccc1)CCCNCc1ccccc1 | 99.5%
COc1ccccc1CNc1nc(NCc2ccc(C(C)C)cc2)c2sccc2n1 | 78.5%
OC(CNCC(c1ccc(Cl)cc1Cl)c1c[nH]c2ccccc12)c1ccccc1 (stereo not given) | 35.2% (inactive)
CCc1nc2ccc(C(=O)NC3CCN(Cc4ccccc4)CC3)cn2c1N(C)Cc1cc2ccccc2s1 | 22.5% (inactive)
CCCNC(=O)Cn1sc2nc(C)cc(C)c2c1=O | 41.7% (inactive)
CCOc1cc(CNCCc2ccc(S(N)(=O)=O)cc2)ccc1OCc1ccc(Cl)cc1 | 99.8%
CCc1ccc(/C=C2/Sc3ccccc3N(CC(=O)NCCCN3CCOCC3)C2=O)cc1 | 36.6% (inactive)
CN1CCN(CCCNC(=O)c2ccc(/C=C3\Sc4ccccc4N(Cc4ccc(F)cc4)C3=O)cc2)CC1 | 4.5% (inactive)
Cn1sc(=O)c2cc(S(=O)(=O)NC3CC3)ccc21 | 73.2%
CN(C)CCCNC(=S)NCC(c1ccc(Cl)cc1Cl)c1c[nH]c2ccccc12 (stereo not given) | 24% (inactive)
CCOc1ccc2[nH]c3c(N4CCc5ccccc5C4)ncnc3c2c1 | 5.2% (inactive)
O=C1C=CC(=O)N1N(c1ccccc1)c1ccccc1 | 45.4% (inactive)
N#Cc1c(Nc2ccccc2Cl)s[nH]c1=O | 95.1%
CCOc1ccccc1CNC(=O)C1CCN(c2nnc(C)c3c(C)n(-c4ccc(C)cc4)nc23)CC1 | 99.6%

Structure (SMILES) | inhibition
O=C(Cn1sc2ccccc2c1=O)Nc1ccc(F)cc1 | 51.7%
CCCCC[C@@H](C)N1C[C@@H](COCc2ccccc2)Oc2cc(N3CC[C@H](N(C)C)C3)ccc2S1(=O)=O | 95.1%
CCOC(=O)c1c(CSc2ccccc2)n(C)c2cc(Br)c(O)c(CN(C)C)c12 | 25.5% (inactive)
CC(C)(c1ccccc1)c1ccc(OCC(O)CNC2CCN(Cc3ccccc3)CC2)cc1 (stereo not given) | 97.6%
O=S(=O)(c1ccccc1)c1nnn2c1nc(NC1CCN(Cc3ccccc3)CC1)c1cc(Cl)ccc12 | 98.7%
CCCCC[C@@H](C)N1C[C@H](COCc2ccccc2)Oc2cc(N3CC[C@@H](N(C)C)C3)ccc2S1(=O)=O | 93.7%
CCCCCCSc1cccc(-c2nc3ccccn3c2NCc2ccccc2)c1 | -0.5% (inactive)
O=c1c2ccccc2sn1-c1ccccc1 | 79.9%
COc1cccc(-c2cnc3c(NC=O)cc(-c4ccccc4)cn23)c1 | 38.8% (inactive)
Cc1ccc(S(=O)(=O)n2ccc3c(OCCOCCNCc4ccc(F)cc4)cccc32)cc1 | 85%
COc1ccc(N2C(=O)CC(Sc3nnc(-c4ccccc4)o3)C2=O)cc1 (stereo not given) | 92.9%
CCCS(=O)(=O)Nc1ccc(Nc2c3ccccc3nc3ccccc23)c(OC)c1 | 99.7%
CC1(C(=O)OCC(=O)Nc2nc(-c3ccc(F)c(F)c3)cs2)CC1(Cl)Cl (stereo not given) | -10.8% (inactive)
CC1COCC(C)N1C1=C(Cl)C(=O)c2ccccc2C1=O (stereo not given) | 99.7%
CCOC(=O)c1nnc(-c2ccccc2)nc1Sc1ccccc1Cl | 4.8% (inactive)
Cc1cc(C)c2nc(C)cc(N/N=C/c3ccc(O)cc3)c2c1 | 100%
CC(C)CNC(=O)c1c(N)n(Cc2ccc3c(c2)OCO3)c2nc3ccccc3nc12 | 21% (inactive)
CN1CCN(c2cc(-c3ccccc3)nc3cc(-c4ccc(F)cc4)nn23)CC1 | 99.7%
CN(c1ccccc1)S(=O)(=O)c1cccc(C(=O)NCCc2c[nH]c3ccccc23)c1 | 13.7% (inactive)
O=C(Nc1ccc(F)cc1)c1nc(S(=O)(=O)Cc2ccccc2)ncc1Cl | 98.8%
Cc1cc(N2CCN(c3nc(-c4ccc([N+](=O)[O-])cc4)cs3)CC2)c2ccccc2n1 | 99.2%
CC(=O)Nc1ccc2c(=O)n(-c3ccccc3)sc2c1 | 39.8% (inactive)
O=C(CN1C(=O)/C(=C\c2cccc(Br)c2)Oc2ccccc21)NCCCN1CCOCC1 | 77%
COc1ccc(-n2sc3ccccc3c2=O)cc1 | 60.1%
CCC(=C(c1ccc(OC)cc1)c1ccc(OC)cc1)c1cn(CC(O)CN2CCN(C)CC2)c2ccccc12 (stereo not given) | 14.8% (inactive)

Structure (SMILES) | inhibition
CCOc1ccc2nc(N(CCCN(C)C)C(=O)c3ccc(S(=O)(=O)N4CCc5ccccc5C4)cc3)sc2c1 | 100%
COC(=O)c1c(NC(=O)c2nc3ccccc3s2)sc2c1CC(C)(C)NC2(C)C | 81.5%
COc1cccc(-c2cnc3c(NC(C)=O)cc(-c4ccsc4)cn23)c1 | 53.2%
CCCCC[C@@H](C)N1C[C@@H](COCc2ccccc2)Oc2cc(N3CC[C@@H](N(C)C)C3)ccc2S1(=O)=O | 95.3%
O=c1c2ccc(F)cc2sn1-c1ccccc1 | 77.6%
O=C(Cn1sc2ccccc2c1=O)NC12CC3CC(CC(C3)C1)C2 | 50% (inactive)
O=CNc1cc(-c2ccsc2)cn2c(-c3ccccc3)cnc12 | 52.6%
c1ccc(CNc2nc(NCC3CC3)nc3cc(-c4ccccc4)sc23)cc1 | 97.8%
CCCCn1c(=N)n(CC(=O)c2ccc(Br)s2)c2ccccc21 | 100%
COc1cc(-c2coc3c(C(=O)NCc4ccc(OC)c(OC)c4)cccc23)ccc1O | 29.4% (inactive)
CC1=NOC(=O)/C1=C/c1ccc(-c2ccc(Cl)cc2)o1 | 84.6%
CN(C)CCNC(=O)c1ccc(-c2cn3c(-c4ccc(Oc5ccccc5)cc4)cnc3cn2)cc1 | 66.8%
Cc1ccc(-n2nnc3c(=O)oc4ccccc4c32)cc1 | 98.8%
COc1cccc(NC(=O)Nc2nc(-c3ccc(OC)c(OC)c3)cs2)c1 | 99.6%
CCOC(=O)c1cc(-c2csc(Nc3c(C)cc(C)cc3C)n2)on1 | 70.1%
Cc1ccc(Nc2nc(NCc3ccco3)c3ccccc3n2)cc1 | 58.7%
O=C1CC(Sc2nnnn2-c2ccccc2)C(=O)N1c1cccc(Cl)c1 (stereo not given) | 89.1%
CCOc1ccc2nc(C)cc(Nc3cccc([N+](=O)[O-])c3)c2c1 | 100%
CCOC(=O)c1c(NC(=O)COc2ccccc2OCC)sc2c1CC(C)(C)NC2(C)C | 94.7%
O=c1c2ccccc2sn1-c1ccccc1F | 44% (inactive)
Cn1cncc1C#Cc1c(-c2ccc(S(C)(=O)=O)cc2)sc2ccccc12 | 17% (inactive)
O=C1Nc2ccc(Br)cc2/C1=C/C(=O)c1ccccc1 | 39.4% (inactive)
COC(=O)c1c(NC(=O)c2ccc(C(=O)c3ccccc3)cc2)sc2c1CC(C)(C)NC2(C)C | 39.6% (inactive)
COc1ccc(-c2cc(NC=O)c3ncc(-c4ccccc4)n3c2)cc1OC | 69.9%
Nc1c(C(=O)NCc2ccc(F)cc2)c2nc3ccccc3nc2n1CCCN1CCOCC1 | 58.3%
